Data on 13 compounds can be found in ChEMBL document CHEMBL5131476, “Development of dihydropyrrolopyridinone-based PKN2/PRK2 chemical tools to enable drug discovery” (Bioorg Med Chem Lett, 2022).

A short description of data set [1]: Toxicity in human HeLa cells assessed as cell viability at 50 uM incubated for 24 hrs by MTT assay. In kind it is cell-based. Conditions: read-out: Activity.
For data set [2], the target named is T1, Serine/threonine-protein kinase N1 (Homo sapiens, UniProt Q16512). The data set can be described thus: Inhibition of PKN1 (unknown origin) by TR-FRET-based tracer displacement assay. For orientation: Time-resolved FRET reads energy transfer from a long-lived donor to a nearby acceptor.
T1 sequence (Q16512 whole entry): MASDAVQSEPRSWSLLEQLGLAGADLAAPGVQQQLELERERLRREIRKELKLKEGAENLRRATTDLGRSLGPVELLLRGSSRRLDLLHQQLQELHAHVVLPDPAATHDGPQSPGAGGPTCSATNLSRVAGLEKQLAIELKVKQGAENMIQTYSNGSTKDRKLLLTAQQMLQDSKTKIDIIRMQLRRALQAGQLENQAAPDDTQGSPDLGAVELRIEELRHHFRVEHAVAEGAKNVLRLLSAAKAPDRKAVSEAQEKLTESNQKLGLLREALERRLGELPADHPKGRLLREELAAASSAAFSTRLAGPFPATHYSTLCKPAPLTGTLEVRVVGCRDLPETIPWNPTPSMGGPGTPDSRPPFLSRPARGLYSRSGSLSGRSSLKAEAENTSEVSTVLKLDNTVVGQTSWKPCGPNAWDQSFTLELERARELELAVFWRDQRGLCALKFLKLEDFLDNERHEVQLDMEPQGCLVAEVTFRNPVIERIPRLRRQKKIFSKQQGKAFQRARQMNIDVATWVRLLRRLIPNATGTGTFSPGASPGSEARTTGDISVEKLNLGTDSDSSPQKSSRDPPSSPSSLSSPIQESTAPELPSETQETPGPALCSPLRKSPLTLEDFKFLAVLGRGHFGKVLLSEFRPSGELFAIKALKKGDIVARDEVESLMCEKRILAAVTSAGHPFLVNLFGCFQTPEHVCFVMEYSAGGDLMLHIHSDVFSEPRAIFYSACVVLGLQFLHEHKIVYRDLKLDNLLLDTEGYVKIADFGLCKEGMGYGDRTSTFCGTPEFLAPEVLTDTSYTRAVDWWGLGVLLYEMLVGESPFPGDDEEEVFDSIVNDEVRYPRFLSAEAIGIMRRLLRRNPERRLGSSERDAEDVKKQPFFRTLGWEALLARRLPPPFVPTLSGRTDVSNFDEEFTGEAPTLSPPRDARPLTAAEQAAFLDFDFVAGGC
In data set [3] the target is T1, Serine/threonine-protein kinase N1. Kind of data set: Inhibition of PKN1 (unknown origin) by TR-FRET-based tracer displacement assay dependent Cheng-Prusoff equation analysis.
For data set [4], the target named is T2, Serine/threonine-protein kinase N2 (Homo sapiens, UniProt Q16513). The data set can be described thus: Inhibition of NanoLuc-PKN2 (ser646-cys984)(unknown origin) expressed in HEK293 cells by cell-based NanoBRET target engagement assay. (In BRET a luciferase serves as donor, and the signal depends on an acceptor being close.)
T2 sequence (Q16513 whole entry): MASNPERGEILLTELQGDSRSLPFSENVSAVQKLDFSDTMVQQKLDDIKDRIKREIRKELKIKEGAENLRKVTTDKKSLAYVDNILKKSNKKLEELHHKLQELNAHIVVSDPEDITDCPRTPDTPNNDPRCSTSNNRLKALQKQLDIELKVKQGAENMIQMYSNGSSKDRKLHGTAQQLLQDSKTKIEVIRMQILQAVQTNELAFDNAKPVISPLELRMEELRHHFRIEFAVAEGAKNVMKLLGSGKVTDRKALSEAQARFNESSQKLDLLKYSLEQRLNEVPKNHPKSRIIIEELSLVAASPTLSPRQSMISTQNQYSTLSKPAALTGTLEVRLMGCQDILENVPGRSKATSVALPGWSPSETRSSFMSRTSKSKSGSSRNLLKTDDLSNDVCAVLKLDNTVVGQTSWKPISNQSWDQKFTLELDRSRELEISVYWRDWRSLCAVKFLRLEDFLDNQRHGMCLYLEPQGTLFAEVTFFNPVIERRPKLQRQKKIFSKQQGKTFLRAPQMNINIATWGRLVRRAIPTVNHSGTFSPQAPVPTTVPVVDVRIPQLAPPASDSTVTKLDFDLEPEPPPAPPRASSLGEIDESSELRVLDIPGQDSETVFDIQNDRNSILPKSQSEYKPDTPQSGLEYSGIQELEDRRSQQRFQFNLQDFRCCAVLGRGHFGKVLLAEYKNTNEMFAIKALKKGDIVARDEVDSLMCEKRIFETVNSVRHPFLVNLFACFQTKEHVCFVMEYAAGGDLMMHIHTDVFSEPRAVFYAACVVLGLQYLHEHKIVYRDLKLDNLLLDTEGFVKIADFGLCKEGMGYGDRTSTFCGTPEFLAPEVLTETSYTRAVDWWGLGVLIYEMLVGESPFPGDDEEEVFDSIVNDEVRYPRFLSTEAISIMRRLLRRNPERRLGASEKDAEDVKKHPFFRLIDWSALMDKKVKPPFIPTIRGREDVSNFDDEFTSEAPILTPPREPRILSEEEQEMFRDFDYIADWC
The target of data set [5] is T2, Serine/threonine-protein kinase N2. Kind of data set: Inhibition of PKN2 (unknown origin) by TR-FRET-based tracer displacement assay.
Data set [6] has the same target. The data set can be described thus: Inhibition of PKN2 (unknown origin) by TR-FRET-based tracer displacement assay dependent Cheng-Prusoff equation analysis.
The target is the same in data set [7]. The data set can be described thus: Inhibition of NanoLuc-PKN2 (ser646-cys984)(unknown origin) expressed in HEK293 cells in […] by cell-based NanoBRET target engagement assay.

Each structure is given as a SMILES string.

As for `O=C1NCCc2[nH]c(-c3ccncc3)cc21`, the viability at 24 h, 50 µM in data set [1] is at least 70%. In data set [2], the IC50 was determined as 300 nM. In data set [3], this compound displayed a Ki of 150 nM.
`CCn1c(-c2ccncc2)cc2c1CCNC2=O`: the IC50 was found to be 2100 nM in data set [4], 16 nM in data set [5], 210 nM in data set [2] and 1100 nM in data set [7]. Also, the viability at 24 h, 50 µM in data set [1] is at least 70%. In addition, the Ki was 8 nM in data set [6] and 108 nM in data set [3].
As for `O=C1NCCc2c1cc(-c1ccncc1)n2CCO`, the IC50 is 11000 nM in data set [4], 30 nM in data set [5] and 440 nM in data set [2]. The Ki was 15 nM in data set [6] and 220 nM in data set [3].
Regarding `Cn1c(-c2ccncc2)cc2c1CCNC2=O`, the values for the IC50 in data set [5] and in data set [2] were 260 nM and 4500 nM, respectively. Besides, the Ki worked out at 130 nM in data set [6] and 2200 nM in data set [3].
Consider `O=C1NCCc2[nH]c(-c3cccnc3)cc21`, for which the values for the IC50 in data set [5] and in data set [2] were 3200 nM and above 5000 nM, respectively. In data set [6], this compound showed a Ki of 1600 nM.
Take `O=C1NCCc2c1cc(-c1ccncc1)n2Cc1ccccc1`: the IC50 in data set [5] was 640 nM; in data set [2], 3000 nM. The values for the Ki in data set [6] and in data set [3] were 320 nM and 1500 nM, respectively.
In the case of `O=C1NC(c2ccccc2)Cc2[nH]c(-c3ccncc3)cc21` (stereo not drawn), the IC50 in data set [5] amounted to 50 nM; in data set [2], 520 nM. Further, the Ki in data set [6] stood at 25 nM; in data set [3], 260 nM.
On to `CCCN1CCc2c(cc(-c3ccncc3)n2CC)C1=O`, for which the IC50 in data set [5] was 2600 nM; in data set [2], above 5000 nM. The compound further registered a Ki in data set [6] of 1300 nM.
In the case of `CCn1c(-c2ccncc2)cc2c1CCN(C)C2=O`, the IC50 in data set [5] was 350 nM; in data set [2], above 5000 nM. This compound also displayed a Ki in data set [6] of 170 nM.
Take `CCCn1c(-c2ccncc2)cc2c1CCNC2=O`: the IC50 turned out to be 2800 nM in data set [4], 15 nM in data set [5] and 120 nM in data set [2]. Also, the viability at 24 h, 50 µM in data set [1] was at least 70%. In addition, the Ki was determined as 7 nM in data set [6] and 60 nM in data set [3].
As to `c1cc(-c2cc3c([nH]2)CCNC3)ccn1`, the IC50 in data set [5] is 2200 nM; in data set [2], above 5000 nM. Also, the Ki in data set [6] came to 1100 nM.
As for `CC(C)n1c(-c2ccncc2)cc2c1CCNC2=O`, the IC50 in data set [5] amounted to 140 nM; in data set [2], 1840 nM. Further, the values for the Ki in data set [6] and in data set [3] were 70 nM and 920 nM, respectively.
For the compound `O=C1CCCc2[nH]c(-c3ccncc3)cc21`, the half-inhibitory concentration (IC50) is 60 nM in data set [5] and 1300 nM in data set [2]. Besides, the inhibitory constant (Ki) in data set [6] was determined as 30 nM; in data set [3], 650 nM.

A word on the IC50: it is the concentration that inhibits the measured activity by half. A higher IC50 goes with weaker potency in that assay. As usually defined, the Ki is a measure of affinity in units of concentration, obtained from inhibition or displacement.
